This note sets out measurements from patent publication US20210052882A1, “ENHANCED TREATMENT VOLUME AND SELECTIVE ABLATION USING ELECTROPORATION WITH ADJUVANT CALCIUM” (Virginia Tech Intellectual Properties, Inc., priority 2019, published 2021).

Data set [1] in a line: Properties of solutions (conductivity, osmolarity). Particulars: base 250 mM sucrose, 1 mM MgCl2, 10 mM HEPES, pH 7.2-7.4. Type of data set: physicochemical. The procedure:
All solutions consisted of the same base ingredients: 250 mM sucrose, 1 mM MgCl2, and 10 mM HEPES buffer in deionized water with a pH in the range of 7.2-7.4. […] Cell culture media contains things such as serum and antibiotics that may affect results. Finally, fresh solutions were added immediately prior to pulsing. All solutions were adjusted to have a pH between 7.2-7.4.

For data set [2], the system named is U251 malignant glioma cells. The data set is described as follows: H-FIRE ablation (lesion) area in collagen scaffolds, live/dead stain 24 hr after treatment. In kind it is cell-based. The procedure: U251 malignant glioma cells (Sigma Aldrich, 09063001) were maintained at 5% CO2 and 37° C. in Eagle's Minimum Essential Medium (Sigma Aldrich) supplemented with 1% penicillin/streptomycin (Life Technologies), 10% fetal bovine serum (Atlanta Biologicals), 1% non-essential amino acids (Sigma Aldrich) and 1 mM sodium pyruvate (Sigma Aldrich). Cells were routinely passaged at 80-90% confluence. […] PDMS wells were treated with 1% PEI (Acros Organics) for 10 min, 0.1% glutaraldehyde (Fisher Scientific) for 20 min, and then washed twice with deionized water prior to collagen seeding to ensure collagen adhesion during treatment. Commercial rat tail collagen type I (BD Biosciences) was neutralized using a solution of 10× Dulbecco's Modified Eagle Medium (10% total volume, Sigma Aldrich), 1 N NaOH (2% collagen volume, Sigma Aldrich), and 1× Dulbecco's Modified Eagle Medium (Sigma Aldrich) to a final concentration of 5 mg/mL. […] The collagen/cell solution was dispensed into PDMS wells and PDMS tops were used to mold the collagen flat while they polymerized in a cell culture incubator for 20 min. PDMS tops were then removed and cell culture media was added. Collagen scaffolds were maintained in the incubator for 24 hr prior to treatment. […] All solutions consisted of the same base ingredients: 250 mM sucrose, 1 mM MgCl2, and 10 mM HEPES buffer in deionized water with a pH in the range of 7.2-7.4. […] Cell culture media contains things such as serum and antibiotics that may affect results. Finally, fresh solutions were added immediately prior to pulsing. All solutions were adjusted to have a pH between 7.2-7.4. The osmolarity and conductivity of the buffers used are shown in Table 1: In this example, two hollow, stainless-steel needle electrodes (Howard electronics) were inserted into the scaffolds using a custom designed electrode housing. […] H-FIRE pulses were delivered using a high-voltage pulse generator (EPULSUS®-FBM1-5, EnergyPulse Systems, Lda). Voltage waveforms were captured using a high voltage probe and oscilloscope (DPO 2012, Tektronix). […] The pulses delivered were bipolar pulses having a positive pulse duration, inter-pulse delay, and negative pulse duration (see, e.g., FIG. 1B). Inter-pulse delay was kept constant (1 μs) while pulse width was varied (1, 2, 5, 10 μs). […] For reversible threshold experiments, scaffolds were imaged immediately after treatment. To visualize ablations, a live/dead stain was performed to visualize live and dead regions of cells in the scaffold. […] Scaffolds were then washed 2× with PBS prior to imaging using an inverted microscope (DMI 6000B, Leica Microsystems) with a 5× objective. Lesion areas were quantified for each treatment using a MATLAB algorithm. Since 24 h post treatment is sufficient to allow any reversibly electroporated cells to recover (as pore resealing happens on the order of minutes), staining the cells immediately after treatment and 24 h later allows for quantification of both the reversible zone of electroporation and irreversible zones of ablation. […] Scaffolds were then washed twice with PBS prior to imaging using an inverted microscope (DMI 6000B, Leica Microsystems) with a 5× objective, filter cubes, and an EM-CCD camera (Hamamatsu C9100). The appropriate filters were used to image Calcein AM (Ex:460-500, DC: 505, EM: 570-640) and propidium iodide (EX:545/26, DC:565, EM:605/70). […] Scaffolds were then imaged immediately after treatment. […] Reversible electroporation experiments were repeated at least six times. Discrepancies in the number of replicates between conditions were due to bubbles or other defects that may have changed the electric field distribution or prohibited a reliable measurement of ablation area. These scaffolds were excluded from analysis. Two-way ANOVA was used to test for differences in cell death area due to the different applied solutions and pulse waveforms. Tukey post-hoc comparisons were used to examine differences among treatment groups. […]

In data set [3] the test system is U251 malignant glioma cells. Description: Reversible electroporation zone in collagen scaffolds imaged immediately after H-FIRE treatment. Type of data set: cell-based. As to the method: After pulsing, CaCl2, NaCl, KCl, and CaCl2/NaCl solutions were removed and cell culture media was added to each scaffold. For irreversible threshold experiments, the scaffolds were returned to the incubator for 24 hr prior to live/dead staining. For reversible threshold experiments, scaffolds were imaged immediately after treatment.
To visualize ablations, a live/dead stain was performed to visualize live and dead regions of cells in the scaffold. Scaffolds were incubated with 2 μM Calcein AM and 23 μM propidium iodide in phosphate buffered saline (PBS) for 30 minutes at room temperature. Scaffolds were then washed 2× with PBS prior to imaging using an inverted microscope (DMI 6000B, Leica Microsystems) with a 5× objective. Lesion areas were quantified for each treatment using a MATLAB algorithm. Since 24 h post treatment is sufficient to allow any reversibly electroporated cells to recover (as pore resealing happens on the order of minutes), staining the cells immediately after treatment and 24 h later allows for quantification of both the reversible zone of electroporation and irreversible zones of ablation.
To stain the scaffolds, media was removed and replaced with phosphate buffered saline (PBS) containing 2 μM Calcein AM (Invitrogen) and 23 μM PI (Invitrogen) and incubated at room temperature for 30 min. Scaffolds were then washed twice with PBS prior to imaging using an inverted microscope (DMI 6000B, Leica Microsystems) with a 5× objective, filter cubes, and an EM-CCD camera (Hamamatsu C9100). The appropriate filters were used to image Calcein AM (Ex:460-500, DC: 505, EM: 570-640) and propidium iodide (EX:545/26, DC:565, EM:605/70). To determine the reversible zone of electroporation, treatment followed the same electroporation protocol, but Calcein AM and PI were added to the CaCl2 and NaCl solutions at all steps prior to pulsing. Scaffolds were then imaged immediately after treatment.
Irreversible electroporation experiments were repeated 6-12 times for each condition. Reversible electroporation experiments were repeated at least six times. Discrepancies in the number of replicates between conditions were due to bubbles or other defects that may have changed the electric field distribution or prohibited a reliable measurement of ablation area. These scaffolds were excluded from analysis. Two-way ANOVA was used to test for differences in cell death area due to the different applied solutions and pulse waveforms. Tukey post-hoc comparisons were used to examine differences among treatment groups. Statistical analyses were performed with a confidence level of α=0.05 (MP Pro 14). Results are shown as means±standard deviation.
To investigate how CaCl2 and NaCl treatments affect permeabilization of the cells, the areas for reversible electroporation and their corresponding reversible electric field thresholds were characterized. Reversible electroporation thresholds for H-FIRE treatment have not been extensively characterized, making this work one of the first to quantify reversible thresholds for a range of unexplored pulse durations.

Data set [4] relates to U251 malignant glioma cells. Description: Electric field threshold for cell death, ablation area mapped to finite element model.
Procedure: For analysis, images were separated into two channels (green—Calcein AM, red—PI) and ablation areas for the green channel were analyzed for irreversible thresholds and red channels for reversible electroporation thresholds using a custom algorithm written in MATLAB. In cases where the algorithm was unable to accurately measure ablations, coordinate points from the algorithm outlining the ablation area were used as a guide to manually trace and measure the area in ImageJ. Ablation area measurements were mapped to a finite element model of the experimental setup to determine the corresponding electric field threshold.
Treatments were simulated using the finite element method (COMSOL Multiphysics, Burlington, Mass.) and the electric field and temperature distributions were determined. The mesh was refined until there was <1% change in the electric field and temperature values along a cutline between the electrodes. The mesh consisted of 102,615 total elements. […] From the finite element model of the collagen scaffold, a relationship between lesion area and electric field magnitude is determined by performing numerical integration on the surface of the scaffold for a range of electric field magnitudes (100-3000 V/cm). A curve was constructed and fit to the data using least squares fitting in MATLAB. […] This equation was used to accurately back out the electric field thresholds for each treatment condition without needing to manually determine them using COMSOL.
From the finite element model, it is possible to determine the electric field threshold required for cell death.
Using the finite element model of H-FIRE treatment in the scaffold, the corresponding electric field thresholds for each ablation area were characterized.

In data set [1] (1 mM solution), `[Cl-].[K+]` [KCl, potassium chloride] yielded a Conductivity of 0.064 S/m and an Osmolarity of 289 mOsm/L. The “ablation size relative to the NaCl control” value in data set [2] (1 mM, H-FIRE) is recorded as “did not result in statistically significant ablation size”.

For the compound `[Cl-].[Na+]` [NaCl, sodium chloride, reference compound], the values for the Conductivity in data set [1] (1 mM solution) and in data set [1] (5 mM solution) were 0.056 ± 0.001 S/m and 0.089 S/m, respectively. Besides, the Osmolarity in data set [1] (1 mM solution) was found to be 287 mOsm/L; in data set [1] (5 mM solution), 291 mOsm/L. For the same compound, the “visible lesion after H-FIRE” value in data set [2] (shorter pulse widths) is “no visible lesion”. Also, the “reversible areas, NaCl solutions versus CaCl2 counterparts” value in data set [3] (1 mM and 5 mM, all waveforms) is “smaller reversible areas”. Also, the “reversible zones larger than irreversible zones” value in data set [3] (2-1-2 waveform, 1 mM) was 4.68 ×; in data set [3] (2-1-2 waveform, 5 mM) it was 3.88 ×; in data set [3] (5-1-5 waveform, 1 mM), 5.58 ×; in data set [3] (5-1-5 waveform, 5 mM), 3.94 ×; in data set [3] (10-1-10 waveform, 1 mM) it was 3.17 ×; in data set [3] (10-1-10 waveform, 5 mM), 2.94 ×. For the same compound, the “difference between reversible and irreversible electroporation areas” value in data set [3] (FIG. 10) is “largest”. For the same compound, the electric field threshold in data set [4] (H-FIRE 10-1-10 waveform, 1 mM) was 1641±159 V/cm; in data set [4] (IRE treatment), 698±103 V/cm.
